Article PMC4436313, “Novel Heparan Sulfate-Binding Peptides for Blocking Herpesvirus Entry” (PLoS ONE, 2015)
Ends that are not written are not given here.

How the values were obtained:
MCMV [1] = settings: for Plaque Reduction (Average from Fig 1): peptide 500 μg/ml, incubated with MEF 10.1 cells 30 min prior to MCMV (~100 pfu/well), percent reduction vs PBS-treated control, three independent experiments, at least three replicates each
Procedure: Peptides were screened for their ability to reduce viral infection using a plaque reduction assay. Cells were cultured in 12-well (VERO) or 24-well culture plates (MEF 10.1 and HFF). When cells reached ~80% confluence the media was removed and washed once with PBS before addition of peptide. As a control, cells were incubated with PBS alone. After a 30 min incubation with peptide in PBS, virus (~100 pfu/well for MCMV and ~30–40 pfu/well for HCMV and HSV) was added and incubated for another 90 min (HSV and HCMV) or 60 min (MCMV). Following virus incubation the peptide/virus mixture was removed and replaced with 0.75% carboxymethyl cellulose (Sigma Aldrich, St. Louis, MO) (CMC) + complete media (DMEM + P/S + L-Gln) for MCMV and HSV experiments or 0.5% agarose (Lonza, Rockland, ME) in complete media for HCMV experiments. The plates were incubated at 37° C in 5% CO2 for 4 days and when plaques began to develop, plates were stained with Coomassie stain (AMRESCO, Solon, Ohio). Due to the inability of HCMV to form distinct plaques on HAEC and ARPE-19 cells, infection in these cell types was measured by counting mCherry positive foci 14 days post infection. Plaques were counted manually using a dissection microscope. Data was analyzed using Prism 5.0 (GraphPad Software, La Jolla, CA). Data were expressed as percent infection (100 x (number of plaques after treatment/ the number of plaques in the PBS-treated wells)).
Seven synthetic peptides based on the structure of peptide p5 were screened for their ability to reduce MCMV infection in vitro (Table 1). In the initial screening assays all peptides were tested at a single concentration (500 μg/ml) using a plaque-reduction assay, in which mouse embryonic fibroblasts were incubated with the peptides for 30 min prior to the addition of virus.
(A) Peptides (500 μg/ml) with different net charges and lengths were incubated with cells 30 min prior to addition of MCMV (~100 pfu/well). Bars represent the average of the percent reduction in infection compared to PBS-treated control from three independent experiments with at least three replicates in each + SD. (B) p5+14 and CGGY-p5G (control peptide) were serially diluted and assayed in a plaque reduction assay as described in materials and methods.

MCMV [2] = test: Heparin blockade of peptide-mediated plaque reduction; type: cell-based, murine CMV (MCMV)
Procedure: Peptide p5+14 (100 μM) was pre-incubated with heparin sodium salt (Acros Organics, NJ) at different concentrations for 1 h at 37°C. This heparin/peptide mix was added to the cells and incubated for 30 min at 37°C. Following the incubation, supernatant was aspirated and cells washed once with PBS to remove unbound/excess heparin or peptide. The cells were subsequently infected with ~100 pfu/well of MCMV. To test whether heparin treatment of cells interferes with virus infection, MEF 10.1 cells in a 24 well dish were pre-incubated with different concentrations of heparin for 1 hour and washed as described above. Following this pre-incubation, infection was initiated as described above. Finally to test the effect of heparin treatment on the infectivity of virus, MCMV was incubated with different concentrations of heparin for 1h before infecting cells. For all treatments, virus was removed 1h post infection and cells were overlaid with CMC. Plates were incubated for 4 days before staining and counting the plaques.
Fig 3 Soluble heparin interferes with peptide inhibition of virus infection. The effect of heparin on the activity of peptide and MCMV viral infectivity in vitro when (A) pre-incubated with the peptide (100 μM), (B) incubated with the cells before adding virus, and (C) pre-incubated with virus alone in a plaque reduction assay. […]

[3] = Self-aggregation of peptide (data not shown); type: physicochemical
MEF 10.1 cells = test: Visualization of bound biotinylated peptide by fluorescence microscopy; type: binding, Mouse; settings: biotinylated peptide 1.6 μg/mL in PBS overnight at 4°C, fixed MEF cells, Alexa Fluor 594-conjugated streptavidin
Procedure: Coverslips with fixed MEF cells were prepared, washed in PBS, and blocked with 1% BSA/PBS for 5 min. Following a PBS wash, the nuclei were stained using Hoechst (Life Technologies Molecular Probes, Grand Island, NY) 1:100 in H2O for 30 min at 37°C. Cells were then blocked using a casein block solution (Scytek) for 5 min, AVIDIN/Biotin blocks (VECTOR) for 20 min each at room temperature (RT) followed by a 5 min PBS wash. Biotinylated p5+14 or CGGY-p5G (control) at 1.6 μg/mL in PBS was added and incubated overnight at 4°C. Following a PBS wash Alexa Fluor 594-conjugated streptavidin (Molecular Probes) was added at a 1:200 dilution in PBS for 1h at RT. Cells were then permeabilized with 0.2% Triton X-100 (Sigma) in PBS for 10 min at RT and washed with a solution of 1% BSA in PBS for 30 min. The cells were then stained with Alexa Fluor 488-conjugated phalloidin (Molecular Probes) at a 1:100 dilution of stock in 1% BSA/PBS, for 45 min at RT to visualize actin filaments. Slides were cover-slipped using a fluorescent mounting medium (Dako) to minimize photobleaching.
Fig 2 p5+14 binding to cells is charge dependent. (A) Predicted α-helix structure of peptide p5+14 based on ITASSER modeling. (B) Biotinylated peptide p5+14 (left panel) or CGGY-p5G (right panel) was added to MEF 10.1 cells followed by addition of Alexa Fluor 594-conjugated streptavidin (red). […]

[4] = system: HCMV TB40/E-pp150-GFP adsorption to HFF cells; test: Flow cytometric analysis of attached virus; type: cell-based, Human cytomegalovirus; settings: peptide 100μM, HFF cells at 4°C, 1/2 h, then HCMV TB40/E pp150-GFP MOI 10 for 1h; GFP MFI vs PBS treated cells; 3 replicates
Procedure: HFF cells were grown in a 24 well dish and allowed to reach ~80% confluency. The cells were cooled to 4°C to prevent virus internalization before addition of peptide (100μM) and incubated for ½ h. Following the incubation, HCMV TB40/E pp150-GFP was added (MOI 10) at 4°C and incubated for 1h. Following the incubation, cells were removed from the wells using non-enzymatic cell stripper solution (Corning), fixed (with paraformaldehyde) and the data acquired using a BD FACS Calibur flowcytometer (BD Biosciences). The data was analyzed using FlowJo software (TreeStar).
Fig 5 Peptide p5+14 blocks adsorption of MCMV. (A) MCMV was preincubated with p5+14 peptide (100 μM) before diluting the virus/peptide to an ineffective peptide concentration (1 μM) and assayed in the plaque reduction assay as described in materials and methods. As a control, virus and peptide (100 μM) were added to cells simultaneously. […] Plaque reduction was measured in a plaque reduction assay. […] (C) Adsorption of HCMV TB40/E-pp150-GFP (MOI 10) fusion protein expressing HCMV was measured via flowcytometry in the presence of p5+14 (green), control peptide CGGY-p5G (orange) and PBS (blue). […] Inset is a scatter plot of the mean fluorescence intensity (MFI) for GFP with the line representing average of 3 replicates +/- SD for the different treatments.

Substance: MPRRR RIRRR QK [G2, reference compound]
- Reduction in MCMV infection at 10 μM (MCMV [1]; peptide 10 μM, plaque reduction assay, comparison p5+14 vs G2): ineffective
- Inhibition of MCMV infection at 100 μM (MCMV [1]; peptide 100 μM, plaque reduction assay, comparison p5+14 vs G2): effectively inhibited MCMV infection

Substance: heparin sodium salt
- Reduction of infection, heparin pre-incubated with MCMV (MCMV [2]; MCMV incubated with heparin 1 h without peptide, all heparin concentrations ≥ 2 μg/mL): > 80%
- MCMV infection after pre-incubation of the cells with heparin (MCMV [2]; MEF 10.1 cells pre-incubated with heparin 1 hour and washed prior to virus addition, no peptide): did not alter MCMV infection

Substance: CGGYSKAQKAQAKQAKQAQKAQKAQAKQAKQ [CGGY-p5, p5 variant with N-terminal Cys residue generated to facilitate incorporation of 99mTc]
- Plaque Reduction (Average from Fig 1) (MCMV [1]): ~61%
- Self-aggregation [3]: prone to self-aggregation

Substance: GGGYSRAQRAQARQARQAQRAQRAQARQARQ [p5R]
- Blocking of viral infection compared to peptide p5 (MCMV [1]; from Fig 1A, 500 μg/ml, MCMV): 2 fold
- Plaque Reduction (Average from Fig 1) (MCMV [1]): ~75%

Substance: GGGYSKAQKAQAKQAKQAQKAQKAQAKQAKQAQKAQKAQAKQAKQ [p5+14]
- IC50 (MCMV [1]; read-out: IC50, reduction of MCMV infection, serial dilution of peptide, plaque reduction assay, MEF 10.1): 5.2 µM

Substance: GGGYSKAQKAQAKQAKQAQKAQKAQAKQAKQ [p5]
- Plaque Reduction (Average from Fig 1) (MCMV [1]): ~53%

Substance: CGGYSGAQGAQAGQAGQAQGAQGAQAGQAGQ [CGGY-p5G, uncharged p5 variant, replaces Lys with Gly throughout; control peptide]
- Binding of biotinylated peptide to mouse fibroblasts (MEF 10.1 cells): did not bind
- Fluorescent virus attached to the cell surface [4]: no reduction in fluorescence
